In patent US6207686A, “Endothelin antagonists” (Fujisawa Pharmaceutical Co., Ltd., priority 1994, dated 2001):

Legend:
ETB = target: T1, ETB (Sus scrofa, UniProt P35463); experiment: ETB Antagonistic Activity: radioligand binding assay, effect on specific binding of [^125 I]ET-1 in porcine kidney membrane; details: inner medulla of porcine kidney membrane; [^125 I]ET-1 16 pM
T1 construct: Membranes as endothelin receptors were isolated from inner medulla of porcine kidney; from tissue; host or cells: inner medulla of porcine kidney, crude membranes
T1 sequence (P35463 27-443): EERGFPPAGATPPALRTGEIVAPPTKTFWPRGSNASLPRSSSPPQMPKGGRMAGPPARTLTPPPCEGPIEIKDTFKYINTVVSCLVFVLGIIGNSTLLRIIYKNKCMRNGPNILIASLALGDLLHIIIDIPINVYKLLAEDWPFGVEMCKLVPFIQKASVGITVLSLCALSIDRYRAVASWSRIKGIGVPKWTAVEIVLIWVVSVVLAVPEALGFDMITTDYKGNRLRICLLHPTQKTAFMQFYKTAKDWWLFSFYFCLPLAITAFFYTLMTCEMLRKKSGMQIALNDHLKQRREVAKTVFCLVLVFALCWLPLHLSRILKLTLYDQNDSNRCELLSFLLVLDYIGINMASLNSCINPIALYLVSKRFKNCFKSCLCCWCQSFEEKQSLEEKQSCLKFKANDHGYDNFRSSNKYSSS
Method: (ETB Antagonistic Activity)
(§1) Radioligand binding assay:
(§2) (a) Crude receptor membrane preparation:
Membranes as endothelin receptors were isolated from inner medulla of porcine kidney. The inner medulla of porcine kidney was placed in ice-cold buffer (0.25M sucrose, 5 mM Tris-HCl, 0.1 mM EDTA, pH 7.5). The inner medulla was homogenized in five volumes (w/v) of ice-cold buffer using a Brinkman Polytron PT-10 at a setting of 16,000 rpm for three 10-sec periods. The homogenate was centrifuged at 10,000× g for 20 minutes at 4° C. The pellet was discarded and the supernatant was centrifuged at 100,000× g for 60 minutes at 4° C. […]
To determine [^125 I]ET-1 binding to kidney, membrane suspensions prepared from kidney (10 μg of protein) were incubated by constant shaking for 60 minutes at 23° C. with [^125 I]ET-1 (range, 4-900 pM) in a total volume of 250 μl of buffer 1 that contained 0.1 mg/ml of bovine serum albumin. […] The filter disks were washed three times with 0.1 ml of ice-cold 50 mM Tris-HCl buffer (pH 7.5), and the radioactivity was counted in a gamma counter (Hewlett-Packard) with an efficiency of 71%. […] The Kd was determined by Scatchard analysis. […]

ETA = target: T2, ETA (Sus scrofa, UniProt Q29010); experiment: ETA Antagonistic Activity: radioligand binding assay, effect on specific binding of ^125 I-endothelin-1 in porcine aorta membrane; details: ^125 I-Endothelin-1 1.67×10^-11 M, room temperature, 60 minutes
T2 construct: The aorta membrane fractions were stored at -80° C. until use; tissue Pel-Freez Biologicals (U.S.A.); host or cells: porcine aorta, crude membrane fraction
T2 sequence (Q29010 21-427): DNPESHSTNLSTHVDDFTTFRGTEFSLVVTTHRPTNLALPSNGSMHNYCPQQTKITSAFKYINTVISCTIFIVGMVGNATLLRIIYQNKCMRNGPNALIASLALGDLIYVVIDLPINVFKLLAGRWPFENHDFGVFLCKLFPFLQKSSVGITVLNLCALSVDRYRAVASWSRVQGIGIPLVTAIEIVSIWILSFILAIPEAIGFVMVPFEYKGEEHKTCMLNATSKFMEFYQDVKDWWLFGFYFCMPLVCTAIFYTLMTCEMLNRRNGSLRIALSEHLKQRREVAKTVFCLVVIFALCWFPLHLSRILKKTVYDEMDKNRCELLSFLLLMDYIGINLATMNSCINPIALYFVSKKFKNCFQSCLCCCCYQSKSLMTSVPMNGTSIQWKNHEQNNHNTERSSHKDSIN
Method: (ETA Antagonistic Activity)
as §1, §2
Porcine aorta was purchased from Pel-Freez Biologicals (U.S.A.) and stored at -80° C. until use.
Porcine aorta (50 g) was thawed and dissected free from fatty tissue, minced with scissors and then homogenized with a polytron (Brinkmann PT-20, maximal speed for 3×10 sec) in 100 ml buffer (0.25M sucrose, 10 mM Tris-HCl, 0.1 mM EDTA).
The homogenate was centrifuged at 10,000 g for 20 minutes at 4° C.
The supernatant, containing the plasma membrane fraction, was centrifuged at 100,000 g for 60 minutes at 4° C., and then resultant pellets were referred to as crude membrane fractions.
The pellets were resuspended in 25 ml of binding assay buffer (50 mM Tris-HCl, 100 mM NaCl, 5 mM MgCl2, 1.5 μg/ml phenylmethylsulfonyl fluoride (PMSF), 120 μg/ml bacitracin, 12 μg/ml leupepcin, 6 μg/ml chymostain, 0.1% bovine serum albumin (BSA), pH 7.5).
The aorta membrane fractions were stored at -80° C. until use.
(b) ^125 I-endothelin-1 binding assay: […]
After incubation, the incubation mixture were filtered through Glass-fiber GF/C filter (pretreated with 0.1% polyethylene imine for 3 hours prior to use) using cell harvester (Brandel M-24S). […] The filters were counted in a gamma counter (Packard Auto Gamma Model 5650).

SMILES	IC50 (ETB) [nM]	IC50 (ETA) [nM]
O=C(O)[C@H](Cc1c[nH]c2ccccc12)NC(=O)[C@H](c1ccccc1O)[C@H](O)C1CCCCC1 [Compound A, N-[(2R,3R)-3-Cyclohexyl-2-(2-hydroxyphenyl)-3-hydroxypropionyl]-L-tryptophan]	75	–
CCC[C@@H](O)[C@H](C(=O)O)c1ccc2c(c1)OCO2 (racemic) [Compound C, (2RS,3RS)-2-(3,4-Methylenedioxyphenyl)-3-hydroxyhexanoic acid]	–	530
CCC[C@@H](O)[C@H](C(=O)N[C@@H](Cc1c[nH]c2ccccc12)C(=O)O)c1ccc2c(c1)OCO2 (mixture of isomers) [Compound B, N-[(2RS,3RS)-2-(3,4-Methylenedioxyphenyl)-3-hydroxyhexanoyl]-L-tryptophan]	< 10	40
